Measured values taken from article PMC5121239, “Muscle-Type Nicotinic Receptor Modulation by 2,6-Dimethylaniline, a Molecule Resembling the Hydrophobic Moiety of Lidocaine” (Frontiers in Molecular Neuroscience, 2016).

Columns and labels:
[1] = target: T1, muscle-type nicotinic acetylcholine receptor (nAChR) (Torpedo marmorata, UniProt P02711+Q6S3H8+Q6S3H9+Q6S3I0); assay: two-electrode voltage clamp in Xenopus oocytes, agonist concentration-response; assay type: cell-based
T1 construct: gene CHRNA1; purified electroplax nAChR reconstituted in asolectin lipids and microtransplanted to Xenopus oocytes; with nAChR beta, gamma and delta subunits (alpha1, alpha2, beta, gamma, delta heteropentamer)
T1 sequence (P02711 25-461): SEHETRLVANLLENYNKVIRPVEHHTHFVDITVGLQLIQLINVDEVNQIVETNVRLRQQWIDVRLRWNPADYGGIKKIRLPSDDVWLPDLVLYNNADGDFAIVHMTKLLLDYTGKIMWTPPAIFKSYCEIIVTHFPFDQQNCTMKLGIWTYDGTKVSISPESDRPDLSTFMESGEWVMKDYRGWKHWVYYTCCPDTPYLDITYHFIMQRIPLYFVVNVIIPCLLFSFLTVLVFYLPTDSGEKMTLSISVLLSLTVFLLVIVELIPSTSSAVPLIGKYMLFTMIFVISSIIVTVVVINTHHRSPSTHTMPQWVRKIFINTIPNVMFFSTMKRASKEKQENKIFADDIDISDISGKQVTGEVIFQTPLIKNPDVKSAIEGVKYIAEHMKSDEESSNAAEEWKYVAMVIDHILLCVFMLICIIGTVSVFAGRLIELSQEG
T1 sequence (Q6S3I0 25-493): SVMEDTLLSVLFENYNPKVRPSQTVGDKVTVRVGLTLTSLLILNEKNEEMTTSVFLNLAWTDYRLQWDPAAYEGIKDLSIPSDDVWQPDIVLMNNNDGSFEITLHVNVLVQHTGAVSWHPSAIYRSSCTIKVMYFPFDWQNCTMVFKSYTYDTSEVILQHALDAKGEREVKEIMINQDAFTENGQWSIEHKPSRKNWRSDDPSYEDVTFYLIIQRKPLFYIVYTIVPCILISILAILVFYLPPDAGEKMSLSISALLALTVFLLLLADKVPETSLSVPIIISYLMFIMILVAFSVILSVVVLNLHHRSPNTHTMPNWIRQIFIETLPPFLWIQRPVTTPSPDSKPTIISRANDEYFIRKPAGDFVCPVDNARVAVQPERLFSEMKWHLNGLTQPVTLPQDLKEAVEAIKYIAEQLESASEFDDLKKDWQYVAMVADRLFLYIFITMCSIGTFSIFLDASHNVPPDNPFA
T1 sequence (Q6S3H9 18-505): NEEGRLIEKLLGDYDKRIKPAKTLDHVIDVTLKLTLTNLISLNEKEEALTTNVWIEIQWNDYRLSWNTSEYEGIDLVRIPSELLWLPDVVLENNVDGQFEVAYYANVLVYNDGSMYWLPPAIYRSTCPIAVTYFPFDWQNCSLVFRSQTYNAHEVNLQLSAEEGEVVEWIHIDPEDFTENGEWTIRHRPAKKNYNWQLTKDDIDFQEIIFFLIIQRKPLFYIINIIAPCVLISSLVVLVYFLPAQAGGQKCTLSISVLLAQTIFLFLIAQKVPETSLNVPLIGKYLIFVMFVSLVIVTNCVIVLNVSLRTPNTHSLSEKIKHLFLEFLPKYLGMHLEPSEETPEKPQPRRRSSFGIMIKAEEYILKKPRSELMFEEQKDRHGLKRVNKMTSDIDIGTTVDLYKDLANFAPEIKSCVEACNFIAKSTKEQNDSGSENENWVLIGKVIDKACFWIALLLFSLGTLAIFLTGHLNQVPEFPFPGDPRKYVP
T1 sequence (Q6S3H8 22-522): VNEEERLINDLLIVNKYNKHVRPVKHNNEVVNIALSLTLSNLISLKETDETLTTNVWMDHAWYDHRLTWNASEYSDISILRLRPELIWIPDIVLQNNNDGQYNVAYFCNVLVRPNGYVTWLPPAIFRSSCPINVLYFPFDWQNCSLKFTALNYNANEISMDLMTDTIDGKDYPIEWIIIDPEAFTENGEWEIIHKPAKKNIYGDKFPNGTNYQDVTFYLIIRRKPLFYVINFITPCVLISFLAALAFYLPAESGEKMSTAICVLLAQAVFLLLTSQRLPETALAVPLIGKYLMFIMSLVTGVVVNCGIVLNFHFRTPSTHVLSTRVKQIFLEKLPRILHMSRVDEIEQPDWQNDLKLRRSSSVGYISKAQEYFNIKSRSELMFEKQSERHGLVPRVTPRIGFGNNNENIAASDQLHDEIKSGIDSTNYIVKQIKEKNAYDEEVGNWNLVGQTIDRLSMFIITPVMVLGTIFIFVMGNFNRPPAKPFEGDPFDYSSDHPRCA

[2] = target: T1, muscle-type nicotinic acetylcholine receptor (nAChR); assay: two-electrode voltage clamp in Xenopus oocytes, inhibition of current evoked by […] ACh; assay type: cell-based

| SMILES | EC50 [1] [µM] | IC50 [2] [µM] |
| --- | --- | --- |
| CC(=O)OCC[N+](C)(C)C [ACh, acetylcholine] | 29 |  |
| Cc1cccc(C)c1N [DMA, 2,6-dimethylaniline] |  | 2100 |
